Test results reported in patent US20250170239A1, “CELLULAR REPROGRAMMING BY TARGETING THE GOLGI APPARATUS” (MUSC Foundation for Research Development, priority 2023, published 2025).

Columns and labels:
Format in all cases: cell-based, mouse
Pmel T cells = test: Golgi stress (monensin, H2O2, thapsigargin) in Pmel T cells: GM130, ROS, Golgi dispersion; set-up: cell death / mitochondrial ROS / monensin-induced cell death and mitochondrial ROS accumulation / ER stress (p-PERK): dose or concentration left out as unconfirmed
Method: (FIG. 21A) Levels of intracellular glutathione assessed using FACS by employing ThiolTracker Violet dye in control CD19 CAR-T cells or CAR-T cells overexpressing Cbs (CbstdCD19-CAR-T) (n=3). (FIG. 21B) 12 hour Thapsigargin (700 nM) treatment was used to induce ER stress in WT T cells, Cbs-KO T cells, and Cbs-KO T cells+H2S. Levels of phosphorylated PERK were assessed by FACS (n=3). (FIG. 21C) Pmel T cells were treated with either Thapsigargin (700 nM) or Monensin (1 mM) for 12 hours, followed by staining for phosphorylated PERK (p-PERK) and GM130 to assess ER stress and Golgi stress, respectively (n=4). (FIG. 21D) Activated Pmel T cells were treated for 12 hours with either vehicle control or 1 mM Monensin (“+Golgi stress”) before being stained for giantin to assess Golgi dispersion. […] (FIG. 21E) Representative confocal microscopy images of mitochondria (Tom20) and Golgi (giantin) in human PBMCs treated with vehicle control or 0.5 mM GYY4137.
T cells were stained with conjugated for surface markers as described in the figure legends followed by fixation and permeabilization with BD Cytofix/Cytoperm Kit (BD Biosciences, 554722). The Golgi was labeled using anti-Giantin antibody (Abcam, ab80864) as the primary antibody followed by secondary antibody staining with anti-Rabbit IgG conjugated to Alexa Fluor 488 (ab150077). The cells were then imaged using ImageStreamX mark II imaging flow-cytometer and analyzed using IDEAS 6.2. Spectral overlap was compensated for using single-stain controls. Image analysis for Golgi area was performed using the protocol established by Eisenberg-Lerner et al.44 First, cells were gated on single cells using the area and aspect ratio features, and then gated on focused cells using the Gradient RMS feature. Golgi area was calculated using the anti-Giantin fluorescence signaling, using on the Threshold_50 mask that includes the 50% highest intensity pixels of the Golgi staining, with a mask defined as Area Threshold 50 was considered as the Golgi area to compare between the relevant conditions.

CD8+ Pmel T cells = test: RT-PCR of CBS and CSE in cytokine-treated CD8+ Pmel T cells; conditions: CD8+ Pmel T cells activated 3 days in presence of cytokine
Text: (FIG. 13A) Pmel T cells were stained with trypan blue stain on day 3 following activation with gp100+IL2 (100 IU/ml) and treated with concentrations of GYY4137 (n=5). (FIG. 13B) Gating strategy for FACS analysis. Pmel splenocytes stained with LIVE/DEAD Fixable Yellow dye and anti-CD8 PE-Cy7. All FACS samples were first gated on the lymphocyte population based on FSA vs SSA. Single cells were gated using FSA vs. FSH. Live cells were gated using live/dead exclusion dye. CD8+ cells were gated by selecting the positive population. (FIG. 13C) Pmel T cells were stimulated with gp100 tumor antigen and treated with either vehicle or GYY4137 (0.5 mM) and analyzed by FACS for expression of CD62L and CD44 at day 0, day 2, day 4, and day 6. […] (FIG. 13F) CD8+ Pmel T cells were activated for 3 days in the presence of various cytokines and analyzed for mRNA expression of CBS and CSE. […] Splenocytes were activated with anti-CD3 and anti-CD28 antibodies an analyzed for expression of Cbs by western blot. (FIG. 13H) Splenocytes from WT and Cbs-KO mice were expanded with either IL-2 or expanded with IL-15 (10 ng/ml) with or without addition of H2S to the Cbs-KO cells and analyzed for expression of CD62L and CD44 by FACS (n=3). […] At day 14, the mice were bled and the frequency of CD3+ T cells was assessed by FACS (n=5). […] (FIG. 13K) Cells were analyzed using FACS for expression of PD1, TIM3, Lag3, and CD38 (n=3). […]

Prdx4 knockdown T cells = test: Prdx4 siRNA knockdown Pmel T cells under Golgi/oxidative stress
Method: (FIG. 22A) Pmel T cells were activated for 3 days before treatment with vehicle or 50 mM H2O2 for 6 hrs. Prdx4-Golgi colocalization was assessed by PLA using mouse anti-Giantin and rabbit anti-Prdx4 antibodies. (FIG. 22B) Activated Pmel T cells treated with vehicle or 50 mM H2O2 for 6 hrs or 24 hrs with Monensin (1 mM). PLA assay was performed using anti-Giantin and anti-Prdx4 antibodies. (FIG. 22C) Experimental design using Prdx4-targeted siRNA to silence expression of Prdx4 in Pmel T cells. (FIG. 22D) GM130 expression assessed under control versus Monensin (1 μM) conditions in T cells treated with control-siRNA or Prdx4-siRNA. (FIG. 22E) GM130 expression assessed under control versus 50 mM H2O2 conditions in T cells treated with control-siRNA or Prdx4-siRNA+/−0.5 mM GYY4137. (FIG. 22F) Protein translation assessed in Pmel T cells activated+/−GYY4137 and treated with control-siRNA or Prdx4-siRNA. (FIG. 22G) GM130 expression in Pmel T cells treated with vehicle, GYY4137, or Catalase (10 μg/mL). (FIGS. 22H and 22I) Site directed mutagenesis performed to mutate cysteine-54 of the Prdx4 gene. Prdx4-targeted shRNA was used to knock down expression of Prdx4 in Jurkat T cells, followed by transfection with plasmid containing wildtype or mutated Prdx4. (FIG. 22I) GM130 expression assessed after treatment with 50 mM H2O2+/−GYY4137. (FIG. 22J) B16-F10 tumors were injected s.c. into flanks of Pmel mice and grown to ˜100 mm2. TILs and T cells from tumor-draining lymph nodes were isolated via Ficoll spin followed by magnetic bead positive selection. FACS analysis of Prdx4 expression in TILs gated on PD1loLag3lo vs PD1hiLag3hi. (FIG. 22K) Lentiviral supernatant was generated using GFP-tagged control plasmid or GFP-tagged Prdx4-overexpression plasmid. Pmel T cells were transduced with control or Prdx4 lentivirus. Pmel T cells overexpressing Prdx4 and control T cells were treated with H2O2 (50 mM) followed by staining with anti-GM130.
Given the delicate redox balance necessary for the native disulfide bonds, it was postulated that a localized mechanism for the detection and elimination of ROS produced during the oxidative folding process may require Prdx4. Thus, it was hypothesized that ER and Golgi network stress mitigated by H2S is mediated through the Prdx4 localization and activity in these organelles. First, it was established if Prdx4 also localizes within the Golgi apparatus in T cells using a proximity ligation assay (PLA), a tool that allows in situ detection of endogenous proteins with high specificity and sensitivity, with antibodies directed against Giantin (a conserved Golgi membrane protein) and Prdx4. […] Next, using siRNA targeting Prdx4, expression of Prdx4 in CD8+ Pmel T cells was knocked down (FIG. 22C, FIGS. 23A and 23B). The cells were then subjected to conditions of oxidative and Golgi stress in the presence or absence of H2S treatment. […] Then, to determine whether the protective effect of H2S on Golgi stress is dependent on the presence of Prdx4, Golgi stress was induced in the presence or absence of H2S with control (siCtl) and Prdx4 knockdown (siPrdx4) T cells.

**Q.** Which “Golgi stress (GM130)” value (Pmel T cells; Thapsigargin (700 nM) 12 hours) does the source give for `C/C=C(/C)C(=O)O[C@H]1C(C)=C2[C@H]([C@@H]1OC(=O)CCCCCCC)[C@@](C)(OC(C)=O)C[C@H](OC(=O)CCC)[C@@]1(O)[C@H]2OC(=O)[C@@]1(C)O` [Thapsigargin] here?
**A.** nor did Thapsigargin induced Golgi stress

**Q.** For “IL15: cytokine known to induce the Tcm phenotype in T cells”, which “mRNA expression of CBS and CSE” value (CD8+ Pmel T cells) is on record?
**A.** significantly increased expression of both CBS and CSE

**Q.** How did the “protection against Golgi stress (GM130), Prdx4 knockdown T cells” value (Prdx4 knockdown T cells; Catalase (10 μg/mL)) turn out when catalase was run?
**A.** protection against Golgi stress could be rescued

**Q.** “IL6: cytokine that plays a key role in memory formation” was tested. Which “mRNA expression of CBS and CSE” value (CD8+ Pmel T cells) did it give?
**A.** significantly increased expression of both CBS and CSE

**Q.** For `CC[C@@]1([C@@H]2O[C@@H]([C@H]3O[C@@](O)(CO)[C@H](C)C[C@@H]3C)C[C@@H]2C)CC[C@H]([C@]2(C)CC[C@]3(C[C@H](O)[C@@H](C)[C@@H]([C@@H](C)[C@@H](OC)[C@H](C)C(=O)O)O3)O2)O1` [monensin], which “ER stress (p-PERK)” value (Pmel T cells) is on record?
**A.** did not induce ER stress

**Q.** And the cell death (Pmel T cells)?
**A.** induced cell death

**Q.** What about the “mitochondrial ROS” value (Pmel T cells) of the same molecule?
**A.** cellular accumulation of mitochondrial ROS

**Q.** What about the “Golgi dispersion (Golgi area, ImageStream)” value (Pmel T cells; 1 mM Monensin 12 hours) of the same molecule?
**A.** Golgi dispersion significantly increased

**Q.** And the “intracellular ROS (DCFDA)” value (Pmel T cells; 1 mM monensin)?
**A.** significant increase in ROS (DCFDA)

**Q.** What about the “decrease in GM130 expression, Prdx4 knockdown T cells” value (Prdx4 knockdown T cells; Monensin (1 μM)) of the same molecule?
**A.** further exacerbated
